From patent EP4624471A1, “PKMYT1 INHIBITOR, PREPARATION METHOD THEREFOR, AND PHARMACEUTICAL COMPOSITION AND USE THEREOF” (Shanghai Qilu Pharmaceutical Research and Development …, priority 2022, dated 2024)
Where two headings read alike, the source gives them in different places.

Target: T1, PKMYT1 enzyme (Homo sapiens, UniProt Q99640)
T1 construct: purchased Thermo Scientific A33387
T1 sequence (Q99640 1-499): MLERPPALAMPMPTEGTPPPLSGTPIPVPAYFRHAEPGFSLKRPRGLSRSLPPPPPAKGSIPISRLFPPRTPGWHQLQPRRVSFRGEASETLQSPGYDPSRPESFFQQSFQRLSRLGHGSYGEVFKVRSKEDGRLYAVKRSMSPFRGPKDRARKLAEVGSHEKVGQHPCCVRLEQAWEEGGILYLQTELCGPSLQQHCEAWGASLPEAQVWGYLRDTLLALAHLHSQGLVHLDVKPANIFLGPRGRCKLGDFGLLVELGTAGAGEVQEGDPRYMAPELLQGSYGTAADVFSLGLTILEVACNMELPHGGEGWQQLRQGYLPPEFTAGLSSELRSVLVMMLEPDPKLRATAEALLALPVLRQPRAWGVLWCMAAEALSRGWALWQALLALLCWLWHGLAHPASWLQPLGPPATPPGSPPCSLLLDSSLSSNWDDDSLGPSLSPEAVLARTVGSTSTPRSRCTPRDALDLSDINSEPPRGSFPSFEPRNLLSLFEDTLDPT
Experiment: PKMYT1 enzyme inhibition activity, ADP-GLO method
Format: biochemical

[1] = PKMYT1 enzyme 10 nM, ATP 5 µM, 37°C 90 minutes; read-out: ADP-GLO IC50
[2] = read-out: ADP-GLO IC50; PKMYT1 enzyme 10 nM, ATP 5 µM, 37°C 90 minutes

IC50 [2] | SMILES | IC50 [1]
 | Cc1nc2c(cc1C(=O)O)c(C(N)=O)c(N)n2-c1c(C)c(O)cc(F)c1C [Example 90] | 90.7 nM
 | C=C(C)c1cnc2c(c1)c(C(N)=O)c(N)n2-c1c(C)cc(F)c(O)c1C [Example 155] | 23.2 nM
 | Cc1c(O)cc(F)c(C)c1-n1c(N)c(C(N)=O)c2cc(N3CCOCC3)cnc21 [Example 117] | 192 nM
 | Cc1cc(F)c(O)c(C)c1-n1c(N)c(C(N)=O)c2cc(C3CC3)cnc21 (atropisomer, axis not shown) [Example 144] | 5.74 nM
 | Cc1cc(F)c(O)c(C)c1-n1c(N)c(C(N)=O)c2cc(OC3CCC3)c(C)nc21 [Example 96] | 9.4 nM
 | Cc1cc(F)c(O)c(C)c1-n1c(N)c(C(N)=O)c2cc(CC(C)C)c(C)nc21 (atropisomer, axis not shown) [Example 166.2] | 3.78 nM
 | Cc1cc(F)c(O)c(C)c1-n1c(N)c(C(N)=O)c2cc(OC(C)C)c(C)nc21 [Example 160] | 7.85 nM
 | Cc1cc(F)c(O)c(C)c1-n1c(N)c(C(N)=O)c2cc(C3CC3)cnc21 (single isomer, unassigned) [Example 144.1] | 2.08 nM
 | Cc1ccc(O)c(C)c1-n1c(N)c(C(N)=O)c2cnc(C#N)nc21 [Example 14, 6-Amino-2-cyano-7-(3-hydroxy-2,6-dimethylphenyl)-7H-pyrrolo[2,3-d]pyrimidine-5-carboxamide] | 24.3 nM
 | Cc1cc2c(C(N)=O)c(N)n(-c3c(C)cc(Br)c(O)c3C)c2nc1C [Example 97] | 187 nM
 | Cc1cc(F)c(O)c(C)c1-n1c(N)c(C(N)=O)c2c3c(c(C)nc21)CCC3 (racemic) [Example 176] | 9.81 nM
 | CCNc1ncc2c(C(N)=O)c(N)n(-c3c(C)ccc(O)c3C)c2n1 [Example 75] | 5.5 nM
 | CNc1ncc2c(C(N)=O)c(N)n(-c3c(C)ccc(O)c3C)c2n1 [Example 85] | 6.7 nM
 | C=CCCc1cc2c(C(N)=O)c(N)n(-c3c(C)cc(F)c(O)c3C)c2nc1C [Example 157] | 60.6 nM
 | CCc1ncc2c(C(N)=O)c(N)n(-c3c(C)ccc(O)c3C)c2n1 [Example 8, 6-Amino-2-ethyl-7-(3-hydroxy-2,6-dimethylphenyl)-7H-pyrrolo[2,3-d]pyrimidine-5-carboxamide] | 10.5 nM
 | Cc1cc(F)c(O)c(C)c1-n1c(N)c(C(N)=O)c2cc(N3CCCC3)c(C)nc21 (atropisomer, axis not shown) [Example 162.1] | 9.1 nM
 | Cc1cc(F)c(O)c(C)c1-n1c(N)c(C(N)=O)c2cc(C(F)(F)F)cnc21 (racemic) [Example 154] | 13.9 nM
 | COc1cc2c(C(N)=O)c(N)n(-c3c(C)cc(F)c(O)c3C)c2nc1C (racemic) [Example 158] | 8.18 nM
 | Cc1ccc(O)c(C)c1-n1c(N)c(C(N)=O)c2cnc(C3CCOCC3)nc21 [Example 18, 6-Amino-7-(3-hydroxy-2,6-dimethylphenyl)-2-(tetrahydro-2H-pyran-4-yl)-7H-pyrrolo[2,3-d]pyrimidine-5-carboxamide] | 18.3 nM
 | COc1ccc(CNc2ncc3c(C(N)=O)c(N)n(-c4c(C)ccc(O)c4C)c3n2)cc1 [Example 15, 6-Amino-7-(3-hydroxy-2,6-dimethylphenyl)-2-((4-methoxybenzyl)amino)-7H-pyrrolo[2,3-d]pyrimidine-5-carboxamide] | 168 nM
 | Cc1cc2c(C(N)=O)c(N)n(-c3c(C)cc(Cl)c(O)c3C)c2nc1C [Example 43, 2-Amino-1-(4-chloro-3-hydroxy-2,6-dimethylphenyl)-5,6-dimethyl-1H-pyrrolo[2,3-b]pyridine-3-carboxamide] | 26.4 nM
 | COc1ncc2c(C(N)=O)c(N)n(-c3c(C)ccc(O)c3C)c2n1 [Example 46, 6-Amino-7-(3-hydroxy-2,6-dimethylphenyl)-2-methoxy-7H-pyrrolo[2,3-d]pyrimidine-5-carboxamide] | 43.6 nM
 | Cc1cc(F)c(O)c(C)c1-n1c(N)c(C(N)=O)c2cc(C(C)(C)O)c(C)nc21 (atropisomer, axis not shown) [Example 172.1] | 4.6 nM
 | Cc1ccc(O)c(C)c1-n1c(N)c(C(N)=O)c2cnc(C)c(F)c21 [Example 29, 2-Amino-7-fluoro-1-(3-hydroxy-2,6-dimethylphenyl)-6-methyl-1H-pyrrolo[3,2-c]nicotinamide] | 12.4 nM
 | Cc1c(O)cc(F)c(C)c1-n1c(N)c(C(N)=O)c2cc(C(C)C)cnc21 (atropisomer, axis not shown) [Example 113.1] | 93.1 nM
 | Cc1c(O)cc(F)c(C)c1-n1c(N)c(C(N)=O)c2cc(C#N)cnc21 [Example 98] | 8.11 nM
 | COc1cc2c(C(N)=O)c(N)n(-c3c(C)cc(F)c(O)c3C)c2nc1C (atropisomer, axis not shown) [Example 158.1] | 7.5 nM

IC50 [2] | SMILES | IC50 [1]
 | Cc1cc(F)c(O)c(C)c1-n1c(N)c(C(N)=O)c2cc(CC(F)(F)F)c(C)nc21 [Example 174] | 4.7 nM
 | C#Cc1ncc2c(C(N)=O)c(N)n(-c3c(C)ccc(O)c3C)c2n1 [Example 47, 6-Amino-2-ethynyl-7-(3-hydroxy-2,6-dimethylphenyl)-7H-pyrrolo[2,3-d]pyrimidine-5-carboxamide] | 12.9 nM
 | Cc1nc(C2CC2)c2c(C(N)=O)c(N)n(-c3c(C)ccc(O)c3C)c2n1 (racemic) [Example 62] | 16.9 nM
 | Cc1ccc(O)c(C)c1-n1c(N)c(C(N)=O)c2cnc(-c3ccc(F)cc3)nc21 [Example 64] | 15.7 nM
 | Cc1nc(C)c2c(C(N)=O)c(N)n(-c3c(C)ccc(O)c3C)c2n1 [Example 19, 6-Amino-7-(3-hydroxy-2,6-dimethylphenyl)-2,4-dimethyl-7H-pyrrolo[2,3-d]pyrimidine-5-carboxamide] | 4.5 nM
 | Cc1cc2c(C(N)=O)c(N)n(-c3c(C)cc(F)c(O)c3C)c2nc1CC(C)C [Example 151] | 20.1 nM
 | Cc1cc(F)c(O)c(C)c1-n1c(N)c(C(N)=O)c2cc(N(C)C)c(C)nc21 (racemic) [Example 169] | 26.2 nM
6.58 nM | Cc1ccc(O)c(C)c1-n1c(N)c(C(N)=O)c2cc3c(ccn3C)nc21 [Example 206] | 
 | C=Cc1cc2c(C(N)=O)c(N)n(-c3c(C)cc(F)c(O)c3C)c2nc1C (single isomer, unassigned) [Example 142.1] | 10.1 nM
 | Cc1cc(F)c(O)c(C)c1-n1c(N)c(C(N)=O)c2cc(N3CCCC3)c(C)nc21 (racemic) [Example 162] | 14.5 nM
 | Cc1cc(F)c(O)c(C)c1-n1c(N)c(C(N)=O)c2cc(CO)c(C)nc21 [Example 164] | 7.06 nM
 | Cc1ccc(O)c(C)c1-n1c(N)c(C(N)=O)c2cnc(-c3ccccc3)nc21 [Example 11, 6-Amino-7-(3-hydroxy-2,6-dimethylphenyl)-2-phenyl-7H-pyrrolo[2,3-d]pyrimidine-5-carboxamide] | 15.7 nM
 | C=C(C)c1nc2c(cc1C)c(C(N)=O)c(N)n2-c1c(C)c(O)cc(F)c1C [Example 138] | 27 nM
 | C/C=C/c1ncc2c(C(N)=O)c(N)n(-c3c(C)ccc(O)c3C)c2n1 [Example 79] | 4.74 nM
 | C=C(C)c1cc2c(C(N)=O)c(N)n(-c3c(C)cc(F)c(O)c3C)c2nc1C [Example 156] | 26.4 nM
 | Cc1ccc(O)c(C)c1-n1c(N)c(C(N)=O)c2cnc(NC3CC3)nc21 [Example 84] | 5.28 nM
 | Cc1ccc(O)c(C)c1-n1c(N)c(C(N)=O)c2cnc(C3=CCCCC3)nc21 [Example 9, 6-Amino-2-(cyclohex-1-en-1-yl)-7-(3-hydroxy-2,6-dimethylphenyl)-7H-pyrrolo[2,3-d]pyrimidine-5-carboxamide] | 9.05 nM
 | CCc1cc2c(C(N)=O)c(N)n(-c3c(C)cc(F)c(O)c3C)c2nc1C (atropisomer, axis not shown) [Example 143] | 18.2 nM
 | Cc1cc(F)c(O)c(C)c1-n1c(N)c(C(N)=O)c2cc(C(C)(C)O)c(C)nc21 (racemic) [Example 172] | 16.4 nM
 | Cc1cc2c(C(N)=O)c(N)n(-c3c(C)c(O)cc(F)c3C)c2nc1-c1ccnn1C [Example 124] | 10.4 nM
 | Cc1cc(F)c(O)c(C)c1-n1c(N)c(C(N)=O)c2cc(C(F)(F)F)c(C)nc21 [Example 59, 2-Amino-1-(4-fluoro-3-hydroxy-2,6-dimethylphenyl)-6-methyl-5-(trifluoromethyl)-1H-pyrrolo[2,3-b]pyridine-3-carboxamide] | 8.67 nM
 | Cc1ccc(O)c(C)c1-n1c(N)c(C(N)=O)c2cnc(C(F)(F)F)nc21 [Example 4, 6-Amino-7-(3-hydroxy-2,6-dimethylphenyl)-2-(trifluoromethyl)-7H-pyrrolo[2,3-d]pyrimidine-5-carboxamide] | 25.4 nM
 | Cc1cc(F)c(O)c(C)c1-n1c(N)c(C(N)=O)c2cc(CC(C)C)c(C)nc21 (racemic) [Example 166] | 8.4 nM
15.1 nM | Cc1ccc(O)c(C)c1-n1c(N)c(C(N)=O)c2cnc(CC(C)C)nc21 (atropisomer, axis not shown) [Example 57.1] | 
 | Cc1ccc(O)c(C)c1-n1c(N)c(C(N)=O)c2cnc(Cl)nc21 [Example 5, 6-Amino-2-chloro-7-(3-hydroxy-2,6-dimethylphenyl)-7H-pyrrolo[2,3-d]pyrimidine-5-carboxamide] | 8.01 nM
 | Cc1ccc(O)c(C)c1-n1c(N)c(C(N)=O)c2cnc(N3CCCC3)nc21 [Example 35, 6-Amino-7-(3-hydroxy-2,6-dimethylphenyl)-2-(pyrrolidin-1-yl)-7H-pyrrolo[2,3-d]pyrimidine-5-carboxamide] | 37.8 nM
 | Cc1cc2c(C(N)=O)c(N)n(-c3c(C)c(F)cc(O)c3F)c2nc1C [Example 107] | 14.1 nM
